Data reported in patent US8841257B2, “Inhibitors of STAT3 and uses thereof” (Board of Regents, The University of Texas System, priority 2009, dated 2014).
Entries after “also recorded” stand apart in the source; their conditions may differ.

What was measured:
Akt = experiment: pAkt levels in BT20 cells; type: cell-based; details: 5 μM; BT20, constitutively activated Akt
[1] = system: SUM149 inflammatory breast tumor cells; experiment: Anchorage-independent growth in soft agar, SUM149; type: cell-based; details: 28 days
Procedure: Assay for anchorage-independent growth in soft agar Cells (5×10^5) were suspended in 1× DMEM/HEPES, 10% heat-inactivated FBS, 0.13% bicarbonate, and 0.33% BBL agar. The cells were plated on 1% base agar plates (60 mm) containing 1× DMEM/HEPES, 10% heat-inactivated FBS, and 1% BBL agar. Fresh serum-containing medium was fed to the cells on 3-day intervals. The dishes were then incubated at 37° C. with 5% CO2 for 28 days. The colonies that grew in soft agar were photographed and counted. Data are expressed as the number of colonies formed per plate±S.E.M. and three plates were counted per cell line.

[2] = system: SUM149 and MDA-MB-231 cells; experiment: In vitro invasion of an artificial basement membrane; type: cell-based, human; details: 72 hours
Procedure: Effect of prodrugs on in vitro invasion of an artificial basement membrane by human breast cancer cells. SUM149 and MDA-MB-231 cells were trypsinized, resuspended in serum-supplemented medium, and counted. Cells were then washed 3 times with serum-free medium. Plates (6-well) compatible with transwell inserts with 8 μm pore-size polycarbonate filters (Fisher Scientific) were coated with Matrigel in cold serum-free DMEM/F12 at a final concentration of 0.7 mg/mL and held at room temperature for 40 minutes. Cells (in 500 μL serum-free medium) were added into the transwell inserts and incubated for 72 hours in the absence or presence 5 μM prodrug in DMSO (1% by volume). For a control, 10% FBS was used to evaluate the baseline extent of invasion of the different cell lines. After incubation, noninvading cells on the upper surface of the filter were removed with cotton swabs. Cells that had passed through the pores onto the lower side of the filter were fixed, stained with Hema-3 stain (Fisher Scientific), and quantified. The experiments were performed in triplicate and were repeated twice.

[3] = system: xenografts of MDA-MB-468 cells; experiment: MDA-MB-468 xenograft in nude mice, intratumoral injection; type: in vivo
Procedure: After 15 days mice were separated into three groups. Group 1 received PBS, group 2 received 20% hydroxypropyl-β-cyclodextrin (Trappsol) in PBS and group 3 received 10 mM of the compound in 20% Trappsol/PBS. Injections of 50 μL were made directly into the tumors. PBS is a phosphate buffered saline having pH7. Mice were treated daily for 5 days, given two days of rest and were treated for 5 days. On day 16 mice were treated and two hours later tumors were harvested, divided into two parts. The first part was frozen and the other was fixed in formalin for immunohistochemistry. Average tumor volume increased 2.3 and 2.5-fold in PBS and Trappsol/PBS vehicle controls, respectively.
Efficacy of Compound of Example 1 in animal models. […] Nu/nu Nude mice were injected in the mammary fat pad with 2×10^6 MDA-MB-468 cells suspended in matrigel. After 15 days mice were separated into three groups. Group 1 received PBS, group 2 received 20% hydroxypropyl-β-cyclodextrin (Trappsol) in PBS and group 3 received 10 mM of the compound of Example 1 in 20% Trappsol/PBS. PBS is a phosphate buffered saline with pH7. Injections of 50 μL were made directly into the tumors. Mice were treated daily for 5 days, given two days of rest and were treated for 5 days. On day 16 mice were treated and two hours later tumors were harvested, divided into two parts. The first part was frozen and the other was fixed in formalin for immunohistochemistry.

[4] = system: MDA-MB-468 breast cancer cells; experiment: Inhibition of growth of MDA-MB-468 breast cancer cells (MTT); type: cell-based, human; details: 72 hr
Procedure: MDA MB 468 cells were plated at 1500 cells/well DMEM with high glucose 10% FBS. Cells were plated into 96 well plates (1500 cells per well) in. After 24 h the media was changed and cells were treated with DMSO or increasing amounts of the compound of Example 1 in DMSO. All wells had equal concentrations of DMSO. At 72 hr viability was measured with the MTT assay. […] In the mixtures of compounds of Examples 16, 22, 1 and 8. the total concentration of the drug is as listed on the X-axis. However, the mixtures are equimolar amounts of both drugs. For example, 5 μM of the drug is actually 2.5 μM of the compound of Example 16 and 2.5 μM the compound of Example 22. The same is true for the mixture of compounds Example 1 and Example 8.

normal cells = experiment: Effect on normal cells in the cell growth assay; type: cell-based
Procedure: Lung Tumor Cell Viability Assay: H1819, H1299 and H827 lung tumor cells were seeded in 6-well plates at a density of 6×10^4, 4×10^4 and 5×10^4 cells/well, respectively. Prodrugs were dissolved in DMSO to make a stock concentration of 500 μM. The following day the cells were treated either with DMSO alone or with 0.25 μM, 0.5 μM, 1.0 μM, 2.5 μM and 5.0 μM of the compounds from Example 1, Example 16, and Example 22. Seventy two h after treatment with the drug the cells were subjected to cell viability assay using trypan blue. […] Cells were plated and after 24 hr were treated with the compound of Example 16 in DMSO. After 72 hr, cells were counted. Note that vertical axes are different for each plot.

VEGF = experiment: Inhibition of VEGF expression in lung tumor cells (ELISA); type: cell-based, human; details: single dose of 5 μM; HCC-827
Procedure: Inhibition of VEGF expression in lung tumor cells. HCC-827 were seeded in 6-well plates at a density of 4×10^5 cells. The following day, the media was replaced with fresh media containing low serum and treated either the compound from example 16 at a concentration of 5 μM. The cells were incubated at 37° C. and the supernatant was collected at 2, 4, 24, 48 and 72 hours post treatment. The supernatant was centrifuged at 2000 rpm for 3 minutes, transferred to fresh tubes and stored at −20 for further analysis. The supernatants were diluted six times with distilled water.

| Compound | pAkt levels (Akt) | colony formation in soft agar [1] | invasion through the artificial basement membrane ([2]; 5 μM in DMSO) | effectiveness in invasion assay relative to Example 8 ([2]; 5 μM) | growth of breast tumor xenograft ([3]; 10 mM in 20% Trappsol/PBS, 50 μL intratumoral) | increase in average tumor volume ([3]; 10 mM in 20% Trappsol/PBS, 50 μL intratumoral, vehicles 2.3 and 2.5-fold) [fold] | tumor center histology (cellularity, necrosis) ([3]; centers / interior of tumors) | tumor vascularity (CD31 staining, microvessels) ([3]; centers / interior of tumors) | Ki-67 staining of proliferating cells ([3]; treated tumors) | phosphorylation of STAT3 in treated tumors vs vehicle controls ([3]; tumors harvested 2 h after last treatment) | potency in MTT viability assay relative to Example 1 [4] | effect on normal cells compared to vehicle DMSO (normal cells) | time up to which expression and excretion of VEGF is inhibited (VEGF) |
| --- | --- | --- | --- | --- | --- | --- | --- | --- | --- | --- | --- | --- | --- |
| C/C(=C\C(=O)N[C@H]1CCc2cccc3c2N(C1=O)[C@H](C(=O)N[C@H](C)CCC(N)=O)C3)c1ccc(C(F)(F)P(=O)(OCOC(=O)C(C)(C)C)OCOC(=O)C(C)(C)C)cc1 [Example 1, (2E)-3-[4-[[bis[(2,2-dimethyl-1-oxopropoxy)methoxy]phosphinyl]difluoromethyl]phenyl]-but-2-enoyl-Haic-(R)-4-aminopentamide] | no effect | inhibition of colony formation | inhibited invasion | more effective | inhibited; also recorded: inhibits the growth | 1.6 | necrosis; also recorded: notably acellular | avascular | decrease in Ki-67 staining | reduced; also recorded: strongly inhibited |  |  |  |
| CCCC[C@H](NC(=O)/C=C(\C)c1ccc(C(F)(F)P(=O)(OCOC(=O)C(C)(C)C)OCOC(=O)C(C)(C)C)cc1)C(=O)N1C[C@H]2CC2[C@H]1C(=O)N[C@@H](CCC(N)=O)[C@@H](C)OCc1ccccc1 (stereo partly drawn) [Example 16, (2E)-3-[4-[[bis[(2,2-dimethyl-1-oxopropoxy)methoxy]phosphinyl]difluoromethyl]phenyl]-but-2-enoyl-norleucinyl-(2S,3R,4S)-methanoprolinyl-(4S,5R)-4-amino-5-benzyloxyhexamide] |  |  |  |  |  |  |  |  |  |  | somewhat more potent | negligible effects | up to 24 hr |
